Data as given in patent US9435795B2, “Enhanced deposition of chromogens utilizing pyrimidine analogs” (Ventana Medical Systems, Inc., priority 2010, dated 2016).
Converted amounts (≈) assume the structure as drawn. “And” between values parts separate entries of the source, which are not always exact repeats. Identical values can stand only once. Like-named read-outs stand apart in the source and are kept apart here.

Legend:
ultraView HRP multimer = target: T1, ultraView HRP multimer (Armoracia rusticana, UniProt P00433); assay: Michaelis-Menten kinetics of HRP-oxidized DAB with enhanced DAB chromogen mixtures; type: biochemical, horseradish
T1 construct: purchased Ventana Medical Systems (ultraView kit component)
T1 sequence (P00433 31-338 limits assumed): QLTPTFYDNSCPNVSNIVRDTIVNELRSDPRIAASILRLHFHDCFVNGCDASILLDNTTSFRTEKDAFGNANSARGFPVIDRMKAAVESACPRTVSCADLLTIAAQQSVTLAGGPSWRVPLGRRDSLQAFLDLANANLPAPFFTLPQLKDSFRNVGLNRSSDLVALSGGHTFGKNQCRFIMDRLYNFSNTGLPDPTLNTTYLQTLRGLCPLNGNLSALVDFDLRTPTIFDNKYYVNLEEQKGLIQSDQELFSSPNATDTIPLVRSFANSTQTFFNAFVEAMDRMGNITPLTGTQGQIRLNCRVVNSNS
Procedure: To further study the synergistic effect in the increased apparent Vmax for HRP-oxidized DAB, Michaelis-Menten kinetics were calculated for the best enhanced DAB chromogen mixtures in Table 3. […] The definition of Vmax=kcat·[E]total when the enzyme substrate concentration was at saturation levels. When the concentration of enzyme was kept constant, the apparent Vmax is proportional to kcat (the apparent turnover for HRP or the first order rate constant).

[1] = target: T2, horseradish peroxidase (HRP) (Armoracia rusticana, UniProt P00433); assay: Plate assay: kinetic screening of enhancers of HRP-mediated DAB oxidation (ultraView Detection Kit, OD 455 nm); type: biochemical; conditions: for Percent increase of apparent Vmax of HRP: relative to uView Vmax without enhancement
T2 construct: purchased VMSI (Ventana Medical Systems, Inc.) 760-500: 253-4290, 253-4292 and 253-4293
Procedure: The additives were directly added to a well containing the necessary reagents from the ultraView™ Detection Kit (VMSI 760-500: 253-4290, 253-4292 and 253-4293) in 1× Reaction Buffer (VMSI 950-300) and 0.1% fish gelatin. Fish gelatin was used to help disperse the oxidized DAB and inhibit its precipitation from solution. The ultraView™ Detection Kit was diluted to measure the formation of oxidized DAB by UV-VIS at 455 nm. Additives were tested at set concentrations to determine enhancement in the DAB oxidation reaction. The data were graphed, and the apparent maximum velocity (Vmax) was calculated at each additive concentration level.

[2] = Solubility of additive in reaction buffer / aqueous buffers; type: physicochemical; conditions: for solubility: reaction buffer, aqueous buffer, read-out: Solubility of additive in reaction buffer at room temperature
[3] = Compatibility and stability of reformulated DAB Chromogen solution with additive; type: physicochemical
bcl2 on tonsil tissue = assay: IHC staining of bcl2 on tonsil tissue with enhanced DAB chromogen solutions, pathology scoring; conditions: additive in DAB chromogen solution
Procedure: IHC staining was performed for bcl2 on tonsil tissue using enhanced DAB chromogen solutions to further examine enhancer synergistic effects on DAB deposition. Reader 1 performed all pathology evaluations during the same period of time.
Formalin fixed paraffin embedded tonsil tissue was mounted on Superfrost slides, deparaffinized and antigen retrieved using CC1 bulk reagent (Ventana® p/n 950-124). Following retrieval, one drop (100 μL) of UV Inhibitor (a component of the ultraView™ DAB kit) was dispensed onto a slide and incubated for 8 minutes. Following the incubation of the Inhibitor, 1 drop of the mouse anti-bcl2 (clone 124; Ventana® p/n 790-4464) was dispensed onto the slide and incubated for 16 minutes. Following 2 rinses with reaction buffer, the bcl2 antibody was detected using 1 drop of the ultraView™ universal HRP conjugate (a component of the ultraView™ DAB kit) and incubated on the slide for 8 minutes. One drop of DAB (5.5 mM DAB; 0.05% Brij® 35; plus any combination of enhancers investigated in table 3) and H2O2 were each added to the slides and incubated for 8 minutes. ultraView™ DAB was used as the reference. After rinsing the slides in reaction buffer, 100 μL of copper (component of ultraView™ DAB kit) was applied to slide for 4 minutes. Slides were counterstained using Hematoxylin II (Ventana® p/n 790-2208) and Bluing Reagent (Ventana p/n760-2037). […]

[4] = target: T2, horseradish peroxidase (HRP); assay: Plate assay: enhancers added sequentially to ultraView Detection Kit (synergistic/antagonistic effects); type: biochemical; conditions: for Effect on apparent velocity of HRP when added to a preceding assay mixture of Table 2: NMO added to mixture 4, 50 mM L-histidine or 10 mM pyrimidine added to mixture 5
Procedure: The same concentration of reagents from the ultraView™ Detection Kit (VMSI 760-500: 253-4290, 253-4292 and 253-4293) were used in 1× Reaction Buffer™ containing 0.1% fish gelatin for each trial. In each trial, the enhancers were added together one at a time.

[5] = enhancer 10 mM in 50 mM imidazole, 10 mM calcium chloride, 10 mM boric acid
[6] = enhancer 10 mM, no enhancer 18.50
[7] = enhancer 50 mM, no enhancer 18.50, (sat) = reaction rate saturated by start of UV-VIS analysis
[8] = enhancer 100 mM, no enhancer 18.50, (sat) = reaction rate saturated by start of UV-VIS analysis

Oc1ccccn1 [2-Hydroxypyridine]
Vmax (ultraView HRP multimer; [5]): 383 mOD/min
Vmax (apparent, HRP-oxidized DAB) [1, 6]: 47.67 mOD/min
Percent increase of apparent Vmax of HRP ([1]; enhancer 10 mM): 157%
Vmax (apparent, HRP-oxidized DAB) [1, 7]: 18.19 mOD/min
Vmax (apparent, HRP-oxidized DAB) [1, 8]: 15.98 mOD/min

O=C1CC(=O)NC(=S)N1 [2-Thiobarbituric Acid]
Vmax (apparent, HRP-oxidized DAB) [1, 6]: 54.00 mOD/min
Vmax (apparent, HRP-oxidized DAB) [1, 7]: 56.00 mOD/min
Vmax (apparent, HRP-oxidized DAB) [1, 8]: 76.00 mOD/min

CC(=O)Nc1ccc(B(O)O)cc1 [4-AcHNPhB(OH)2, 4-acetylamidophenyl boronic acid]
Vmax (apparent, HRP-oxidized DAB) ([1]; enhancer 5 mM, no enhancer 18.50): 21.20 mOD/min
Vmax (apparent, HRP-oxidized DAB) [1, 6]: 32.80 mOD/min
Percent increase of apparent Vmax of HRP ([1]; enhancer 10 mM): 77%
Vmax (apparent, HRP-oxidized DAB) ([1]; enhancer 20 mM, no enhancer 18.50): 32.00 mOD/min

CN(C)c1ccncc1 [4-dimethylaminopyridine]
Enhancement of apparent velocity of HRP-mediated DAB oxidation (in words) [1]: no enhancement

c1ccc2[nH]cnc2c1 [Benzimidazole]
Enhancement of apparent velocity of HRP-mediated DAB oxidation (in words) [1]: no enhancement

OB(O)O [Boric Acid]
Vmax (apparent, HRP-oxidized DAB) [1, 6]: 67.47 mOD/min
Percent increase of apparent Vmax of HRP ([1]; enhancer 10 mM): 265%
Percent increase of apparent Vmax of HRP ([1]; enhancer 50 mM): 592%

[Ca+2].[Cl-].[Cl-] [Calcium Chloride]
Vmax (apparent, HRP-oxidized DAB) [1]: 43.50 mOD/min and 52.50 mOD/min and 57.00 mOD/min

Nc1cc[nH]c(=O)n1 [Cytosine]
Solubility in aqueous buffers (in words) [2]: solubility problems in aqueous buffers
solubility ([2]; additive 50 mM): 10 to 50 mM (≈ 1110 to 5560 µg/mL)
solubility ([2]; additive 100 mM): 10 to 100 mM (≈ 1110 to 11100 µg/mL)
Enhancement of apparent velocity of HRP-mediated DAB oxidation (in words) [1]: increased the apparent velocity of HRP
Vmax (apparent, HRP-oxidized DAB) [1, 6]: 36.00 mOD/min
Vmax (apparent, HRP-oxidized DAB) [1, 7]: 66.00 mOD/min

c1c[nH]cn1 [Imidazole]
Precipitation of DAB from reformulated DAB Chromogen solution ([3]; higher concentrations of imidazole, 50 mM L-histidine): causing DAB to precipitate
Vmax (ultraView HRP multimer; 10 mM buffer salt with 10 mM pyrimidine, no enhancer 228): 330 mOD/min
Vmax (ultraView HRP multimer; 50 mM buffer salt with 10 mM 2-hydroxypyrimidine (FIG. 19: also 10 mM boric acid, 10 mM calcium chloride)): 320 mOD/min
Vmax (apparent, HRP-oxidized DAB) [1, 6]: 28.80 mOD/min
Percent increase of apparent Vmax of HRP ([1]; enhancer 10 mM): 56%
DAB staining on tissue, pathological review (in words) (bcl2 on tonsil tissue): significantly increased the DAB staining intensity
Vmax (apparent, HRP-oxidized DAB), enhancers added sequentially ([4]; no enhancement 18.50): 34.00 mOD/min

N[C@@H](Cc1c[nH]c2ccccc12)C(=O)O [L-Tryptophan]
Vmax (apparent, HRP-oxidized DAB) [1, 6]: 30.00 mOD/min
Vmax (apparent, HRP-oxidized DAB) [1, 7]: 52.00 mOD/min
Vmax (apparent, HRP-oxidized DAB) [1, 8]: 64.00 mOD/min

C[N+]1([O-])CCOCC1 [NMO, 4-methyl-morpholine N-oxide]
Vmax (apparent, HRP-oxidized DAB) ([1]; enhancer 0.13% (10.7 mM)): 33.60 mOD/min
Vmax (apparent, HRP-oxidized DAB) ([1]; enhancer 0.25% (21.3 mM)): 43.60 mOD/min
Vmax (apparent, HRP-oxidized DAB) ([1]; enhancer 0.50% (42.7 mM)): 51.60 mOD/min
Effect on apparent velocity of HRP when added to a preceding assay mixture of Table 2 [4]: antagonistic effect

c1cocn1 [Oxazole]
Vmax (apparent, HRP-oxidized DAB) [1, 6]: 24.00 mOD/min
Vmax (apparent, HRP-oxidized DAB) [1, 7]: 40.00 mOD/min
Vmax (apparent, HRP-oxidized DAB) [1, 8]: 18.00 (sat) mOD/min

[O-][n+]1cccnc1 [Pyrimidine-N-oxide]
Functionality over time of DAB reformulated with additive [3]: lost functionality and stopped staining with time
Solubility in aqueous buffers (in words) [2]: do not have solubility or volatility problems
Vmax (ultraView HRP multimer; [5]): 374 mOD/min
Vmax (apparent, HRP-oxidized DAB) [1, 6]: 104.00 mOD/min
Vmax (apparent, HRP-oxidized DAB) [1, 7]: 104.00 mOD/min
Vmax (apparent, HRP-oxidized DAB) [1, 8]: 36.00 mOD/min
DAB staining on tissue, pathological review (in words) (bcl2 on tonsil tissue): best DAB signal to background noise ratio for the two enhancers

c1cncnc1 [Pyrimidine]
Vmax (ultraView HRP multimer; enhancer 50 mM in 50 mM imidazole, 10 mM calcium chloride, 10 mM boric acid): 326 mOD/min
Vmax (apparent, HRP-oxidized DAB) [1, 6]: 104.00 mOD/min
Percent increase of apparent Vmax of HRP ([1]; enhancer 10 mM): 462%
Vmax (apparent, HRP-oxidized DAB) [1, 7]: 124.00 mOD/min
Percent increase of apparent Vmax of HRP ([1]; enhancer 50 mM): 570%
Vmax (apparent, HRP-oxidized DAB) [1, 8]: 36.80 (sat) mOD/min
Effect on apparent velocity of HRP when added to a preceding assay mixture of Table 2 [4]: increased the apparent velocity of HRP

CC1(C)CCCC(C)(C)N1[O] [TEMPO, 2,2,6,6-tetramethylpiperidine-1-oxyl]
Vmax (apparent, HRP-oxidized DAB) ([1]; enhancer 0.13% (8 mM)): 18.00 mOD/min
Vmax (apparent, HRP-oxidized DAB) ([1]; enhancer 0.25% (16 mM)): 24.80 mOD/min
Vmax (apparent, HRP-oxidized DAB) ([1]; enhancer 0.50% (32 mM)): 21.20 mOD/min

c1cscn1 [Thiazole]
Vmax (apparent, HRP-oxidized DAB) [1, 6]: 66.40 mOD/min
Vmax (apparent, HRP-oxidized DAB) [1, 7]: 27.00 (sat) mOD/min
Vmax (apparent, HRP-oxidized DAB) [1, 8]: 27.05 (sat) mOD/min

Cc1c[nH]c(=O)[nH]c1=O [Thymine]
Enhancement of apparent velocity of HRP-mediated DAB oxidation (in words) [1]: increased the apparent velocity of HRP
Vmax (apparent, HRP-oxidized DAB) [1, 6]: 82.00 mOD/min
Vmax (apparent, HRP-oxidized DAB) [1, 7]: 86.00 mOD/min
Vmax (apparent, HRP-oxidized DAB) [1, 8]: 74.00 mOD/min

O=c1cc[nH]c(=O)[nH]1 [Uracil]
Solubility in aqueous buffers (in words) [2]: solubility problems in aqueous buffers
solubility ([2]; additive 50 mM): 10 to 50 mM (≈ 1120 to 5600 µg/mL)
solubility ([2]; additive 100 mM): 10 to 100 mM (≈ 1120 to 11200 µg/mL)
Enhancement of apparent velocity of HRP-mediated DAB oxidation (in words) [1]: increased the apparent velocity of HRP
Vmax (apparent, HRP-oxidized DAB) [1, 6]: 52.00 mOD/min
Vmax (apparent, HRP-oxidized DAB) [1, 7]: 72.00 mOD/min

CN(C)c1ccc2nc3ccc(=[N+](C)C)cc-3sc2c1 [methylene blue]
Enhancement of apparent velocity of HRP-mediated DAB oxidation (in words) [1]: no enhancement

c1ccc2c(c1)Nc1ccccc1S2 [phenothiazine]
Enhancement of apparent velocity of HRP-mediated DAB oxidation (in words) [1]: no enhancement
